Source: ChEMBL document CHEMBL3046894, “Synthesis and Herbicidal Activity of Pyrimidinyl Salicylic and Thiosalicylic Acids” (J Pestic Sci, 1996)
Active and inactive are the calls of the source. The calls are words filed in the database; no cut-off is given here.

Legend:
Zea mays [1] = assay: Post-emergence phytotoxicity against Zea mays (maize) assessed as mortality at 1.6 g a.i/10 a applied 11 days after germination as foliar spray; format: organism-based; settings: in vivo, other, 264 h
Zea mays [2] = assay: Post-emergence phytotoxicity against Zea mays (maize) assessed as mortality at 6.3 g a.i/10 a applied 11 days after germination as foliar spray; format: organism-based; settings: in vivo, other, 264 h
Gossypium hirsutum [3] = assay: Post-emergence phytotoxicity against Gossypium hirsutum (cotton) assessed as mortality at 6.3 g a.i/10 a applied 11 days after germination as foliar spray; format: organism-based; settings: in vivo, other, 264 h
Amaranthus retroflexus [4] = assay: Post-emergence herbicidal activity against Amaranthus retroflexus assessed as growth inhibition at 25 g a.i/10 a applied 11 days after germination as foliar spray; format: functional, organism-based
[5] = (§1) Post-emergence phytotoxicity against Glycine max (soybean) assessed as mortality at 1.6 g a.i/10 a applied 11 days after germination as foliar spray; format: organism-based; settings: in vivo, 1.6 g a.i/10 a
Persicaria nodosa [6] = assay: Post-emergence herbicidal activity against Persicaria nodosa assessed as growth inhibition at 25 g a.i/10 a applied 11 days after germination as foliar spray; format: functional, organism-based
Echinochloa crus-galli [7] = assay: Pre-emergence herbicidal activity against Echinochloa crus-galli (barnyard grass) assessed as growth inhibition at 25 g a.i/10 a; format: functional, organism-based
Gossypium hirsutum [8] = assay: Post-emergence phytotoxicity against Gossypium hirsutum (cotton) assessed as mortality at 1.6 g a.i/10 a applied 11 days after germination as foliar spray; format: organism-based; settings: in vivo, other, 264 h
Digitaria sanguinalis [9] = assay: Post-emergence herbicidal activity against Digitaria sanguinalis (hairy crabgrass) assessed as growth inhibition at 25 g a.i/10 a applied 11 days after germination as foliar spray; format: functional, organism-based
Digitaria sanguinalis [10] = assay: Pre-emergence herbicidal activity against Digitaria sanguinalis (hairy crabgrass) assessed as growth inhibition at 25 g a.i/10 a; format: functional, organism-based
Cyperus iria [11] = assay: Pre-emergence herbicidal activity against Cyperus iria assessed as growth inhibition at 25 g a.i/10 a; format: functional, organism-based
Abutilon theophrasti [12] = assay: Post-emergence herbicidal activity against Abutilon theophrasti (velvetleaf) assessed as mortality at 6.3 g a.i/10 a applied 11 days after germination as foliar spray; format: functional; settings: 264 h
Chenopodium album [13] = assay: Post-emergence herbicidal activity against Chenopodium album assessed as growth inhibition at 25 g a.i/10 a applied 11 days after germination as foliar spray; format: functional, organism-based
Persicaria nodosa [14] = assay: Pre-emergence herbicidal activity against Persicaria nodosa assessed as growth inhibition at 25 g a.i/10 a; format: functional, organism-based
Abutilon theophrasti [15] = assay: Post-emergence herbicidal activity against Abutilon theophrasti (velvetleaf) assessed as mortality at 1.6 g a.i/10 a applied 11 days after germination as foliar spray; format: functional; settings: 264 h
Echinochloa crus-galli [16] = assay: Post-emergence herbicidal activity against Echinochloa crus-galli (barnyard grass) assessed as growth inhibition at 25 g a.i/10 a applied 11 days after germination as foliar spray; format: functional, organism-based
Cyperus iria [17] = assay: Post-emergence herbicidal activity against Cyperus iria assessed as growth inhibition at 25 g a.i/10 a applied 11 days after germination as foliar spray; format: functional, organism-based
Amaranthus retroflexus [18] = assay: Pre-emergence herbicidal activity against Amaranthus retroflexus assessed as growth inhibition at 25 g a.i/10 a; format: functional, organism-based
Chenopodium album [19] = assay: Pre-emergence herbicidal activity against Chenopodium album assessed as growth inhibition at 25 g a.i/10 a; format: functional, organism-based
Xanthium strumarium [20] = assay: Pre-emergence herbicidal activity against Xanthium strumarium (cocklebur) assessed as mortality at 1.6 g a.i/10 a; format: functional
Gossypium hirsutum [21] = assay: (§2) Pre-emergence phytotoxicity against Gossypium hirsutum (cotton) assessed as mortality at 6.3 g a.i/10 a; format: organism-based; settings: in vivo, other
Glycine max [22] = assay: Pre-emergence phytotoxicity against Glycine max (soybean) assessed as mortality at 1.6 g a.i/10 a; format: organism-based; settings: in vivo, other
Gossypium hirsutum [23] = assay: Pre-emergence phytotoxicity against Gossypium hirsutum (cotton) assessed as mortality at 1.6 g a.i/10 a; format: organism-based; settings: in vivo, other
Zea mays [24] = assay: (§3) Pre-emergence phytotoxicity against Zea mays (maize) assessed as mortality at 1.6 g a.i/10 a; format: organism-based; settings: in vivo, other
Ipomoea lacunosa = assay: Pre-emergence herbicidal activity against Ipomoea lacunosa assessed as mortality at 1.6 g a.i/10 a; format: functional; settings: for mortality at 16 g/ha: Ipomoea lacunosa, pre-emergence
Glycine max [25] = assay: (§4) Pre-emergence phytotoxicity against Glycine max (soybean) assessed as mortality at 6.3 g a.i/10 a; format: organism-based; settings: in vivo, other
Zea mays [26] = assay: Pre-emergence phytotoxicity against Zea mays (maize) assessed as mortality at 6.3 g a.i/10 a; format: organism-based; settings: in vivo, other
[27] = as §2; format: organism-based; settings: in vivo, 6.3 g a.i/10 a, read-out: Activity
Glycine max [28] = assay: as §1; format: organism-based; settings: in vivo, other, 264 h
Xanthium strumarium [29] = assay: Pre-emergence herbicidal activity against Xanthium strumarium (cocklebur) assessed as mortality at 6.3 g a.i/10 a; format: functional
Glycine max [30] = assay: Post-emergence phytotoxicity against Glycine max (soybean) assessed as mortality at 6.3 g a.i/10 a applied 11 days after germination as foliar spray; format: organism-based; settings: in vivo, other, 264 h
Echinochloa crus-galli [31] = assay: Pre-emergence herbicidal activity against Echinochloa crus-galli (barnyard grass) assessed as mortality at 6.3 g a.i/10 a; format: functional; settings: Echinochloa crus-galli, pre-emergence
[32] = as §3; format: organism-based; settings: in vivo, 1.6 g a.i/10 a, read-out: mortality
Abutilon theophrasti [33] = assay: Pre-emergence herbicidal activity against Abutilon theophrasti (velvetleaf) assessed as mortality at 6.3 g a.i/10 a; format: functional; settings: Abutilon theophrasti, pre-emergence
[34] = as §4; format: organism-based; settings: in vivo, 6.3 g a.i/10 a, read-out: mortality
Echinochloa crus-galli [35] = assay: Post-emergence herbicidal activity against Echinochloa crus-galli (barnyard grass) assessed as mortality at 6.3 g a.i/10 a applied 11 days after germination as foliar spray; format: functional; settings: 264 h

## COc1cc(OC)nc(Oc2cccc(SC)c2C(=O)O)n1
Zea mays [1]
  Activity: Toxic
Zea mays [2]
  Activity: Toxic
Gossypium hirsutum [3]
  Activity: Toxic
Amaranthus retroflexus [4]
  growth inhibition (GI): Active
[5]
  mortality at 264 h: > 90%
Persicaria nodosa [6]
  growth inhibition (GI): Active
Echinochloa crus-galli [7]
  growth inhibition (GI): inactive
Gossypium hirsutum [8]
  Activity: Toxic
Digitaria sanguinalis [9]
  growth inhibition (GI): Active
Digitaria sanguinalis [10]
  growth inhibition (GI): inactive
Cyperus iria [11]
  growth inhibition (GI): inactive
Abutilon theophrasti [12]
  mortality at 63 g/ha: > 90%
Chenopodium album [13]
  growth inhibition (GI): Active
Persicaria nodosa [14]
  growth inhibition (GI): Active
Abutilon theophrasti [15]
  mortality at 16 g/ha: > 90%
Echinochloa crus-galli [16]
  growth inhibition (GI): Active
Cyperus iria [17]
  growth inhibition (GI): Active
Amaranthus retroflexus [18]
  growth inhibition (GI): Active
Chenopodium album [19]
  growth inhibition (GI): inactive

## COc1cc(OC)nc(Oc2cccc(OC(F)F)c2C(=O)O)n1
Zea mays [1]
  Activity: Toxic
Zea mays [2]
  Activity: Toxic
Gossypium hirsutum [3]
  Activity: Toxic
Amaranthus retroflexus [4]
  growth inhibition (GI): Active
[5]
  mortality at 264 h: > 90%
Persicaria nodosa [6]
  growth inhibition (GI): Active
Xanthium strumarium [20]; Xanthium strumarium, pre-emergence
  mortality at 16 g/ha: < 5%
Gossypium hirsutum [21]
  Activity: Non-toxic
Echinochloa crus-galli [7]
  growth inhibition (GI): Active
Gossypium hirsutum [8]
  Activity: Toxic
Digitaria sanguinalis [9]
  growth inhibition (GI): Active
Glycine max [22]
  Activity: Toxic
Digitaria sanguinalis [10]
  growth inhibition (GI): Active
Gossypium hirsutum [23]
  Activity: Non-toxic
Zea mays [24]
  Activity: Non-toxic
Cyperus iria [11]
  growth inhibition (GI): Active
Abutilon theophrasti [12]
  mortality at 63 g/ha: > 90%
Chenopodium album [13]
  growth inhibition (GI): Active
Persicaria nodosa [14]
  growth inhibition (GI): Active
Ipomoea lacunosa
  mortality at 16 g/ha: < 5%
Abutilon theophrasti [15]
  mortality at 16 g/ha: > 90%
Echinochloa crus-galli [16]
  growth inhibition (GI): Active
Glycine max [25]
  Activity: Toxic
Cyperus iria [17]
  growth inhibition (GI): Active
Zea mays [26]
  Activity: Toxic
Amaranthus retroflexus [18]
  growth inhibition (GI): Active
Chenopodium album [19]
  growth inhibition (GI): Active

## COc1cc(OC)nc(Sc2cccc(F)c2C(=O)O)n1
Zea mays [1]
  Activity: Toxic
Zea mays [2]
  Activity: Toxic
Gossypium hirsutum [3]
  Activity: Toxic
[5]
  mortality at 264 h: > 90%
Xanthium strumarium [20]
  Activity: <50%
[27]
  mortality: < 50%
Gossypium hirsutum [8]
  Activity: Non-toxic
Glycine max [22]
  Activity: Non-toxic
Gossypium hirsutum [23]
  Activity: < 50%
Zea mays [24]
  Activity: Toxic
Ipomoea lacunosa
  Activity: <50%
Glycine max [25]
  Activity: Non-toxic
Zea mays [26]
  Activity: Toxic

## COc1cc(OC)nc(Sc2cccc([N+](=O)[O-])c2C(=O)O)n1
Zea mays [1]
  Activity: Non-toxic
Zea mays [2]
  Activity: Non-toxic
Gossypium hirsutum [3]
  Activity: Non-toxic
Glycine max [28]
  Activity: Toxic
Xanthium strumarium [20]
  Activity: <50%
[27]
  mortality: < 50%
Gossypium hirsutum [8]
  Activity: Non-toxic
Glycine max [22]
  Activity: Non-toxic
Gossypium hirsutum [23]
  Activity: < 50%
Zea mays [24]
  Activity: Non-toxic
Xanthium strumarium [29]
  Activity: <50%
Glycine max [30]
  Activity: Toxic
Glycine max [25]
  Activity: Toxic
Zea mays [26]
  Activity: Toxic

## COc1cc(OC)nc(Oc2cccc(F)c2C(=O)O)n1
Zea mays [1]
  Activity: Toxic
Gossypium hirsutum [3]
  Activity: Toxic
Amaranthus retroflexus [4]
  growth inhibition (GI): Active
Glycine max [28]
  Activity: Toxic
Persicaria nodosa [6]
  growth inhibition (GI): Active
Gossypium hirsutum [21]
  Activity: Toxic
Echinochloa crus-galli [7]
  growth inhibition (GI): Active
Gossypium hirsutum [8]
  Activity: Toxic
Digitaria sanguinalis [9]
  growth inhibition (GI): Active
Glycine max [22]
  Activity: Toxic
Echinochloa crus-galli [31]
  mortality at 63 g/ha: > 90%
Digitaria sanguinalis [10]
  growth inhibition (GI): Active
Gossypium hirsutum [23]
  Activity: Non-toxic
[32]
  mortality: > 90%
Cyperus iria [11]
  growth inhibition (GI): Active
Abutilon theophrasti [12]
  mortality at 63 g/ha: > 90%
Chenopodium album [13]
  growth inhibition (GI): Active
Persicaria nodosa [14]
  growth inhibition (GI): Active
Ipomoea lacunosa
  mortality at 16 g/ha: < 5%
Abutilon theophrasti [33]
  mortality at 63 g/ha: > 90%
Abutilon theophrasti [15]
  mortality at 16 g/ha: > 90%
Echinochloa crus-galli [16]
  growth inhibition (GI): Active
[34]
  mortality: > 90%
Cyperus iria [17]
  growth inhibition (GI): Active
Amaranthus retroflexus [18]
  growth inhibition (GI): Active
Chenopodium album [19]
  growth inhibition (GI): Active
Echinochloa crus-galli [35]
  mortality at 63 g/ha: > 90%

## CCSc1cccc(Oc2nc(OC)cc(OC)n2)c1C(=O)O
Amaranthus retroflexus [4]
  growth inhibition (GI): Active
Persicaria nodosa [6]
  growth inhibition (GI): Active
Echinochloa crus-galli [7]
  growth inhibition (GI): inactive
Digitaria sanguinalis [9]
  growth inhibition (GI): inactive
Digitaria sanguinalis [10]
  growth inhibition (GI): inactive
Cyperus iria [11]
  growth inhibition (GI): inactive
Chenopodium album [13]
  growth inhibition (GI): Active
Persicaria nodosa [14]
  growth inhibition (GI): inactive
Echinochloa crus-galli [16]
  growth inhibition (GI): Active
Cyperus iria [17]
  growth inhibition (GI): Active
Amaranthus retroflexus [18]
  growth inhibition (GI): Active
Chenopodium album [19]
  growth inhibition (GI): inactive

## COc1cc(OC)nc(Oc2cccc(OC(C)C)c2C(=O)O)n1
Amaranthus retroflexus [4]
  growth inhibition (GI): Active
Persicaria nodosa [6]
  growth inhibition (GI): Active
Echinochloa crus-galli [7]
  growth inhibition (GI): Active
Digitaria sanguinalis [9]
  growth inhibition (GI): Active
Digitaria sanguinalis [10]
  growth inhibition (GI): Active
Cyperus iria [11]
  growth inhibition (GI): Active
Chenopodium album [13]
  growth inhibition (GI): Active
Persicaria nodosa [14]
  growth inhibition (GI): Active
Echinochloa crus-galli [16]
  growth inhibition (GI): Active
Cyperus iria [17]
  growth inhibition (GI): Active
Amaranthus retroflexus [18]
  growth inhibition (GI): Active
Chenopodium album [19]
  growth inhibition (GI): Active

## CCCOc1cccc(Oc2nc(OC)cc(OC)n2)c1C(=O)O
Amaranthus retroflexus [4]
  growth inhibition (GI): Active
Persicaria nodosa [6]
  growth inhibition (GI): Active
Echinochloa crus-galli [7]
  growth inhibition (GI): Active
Digitaria sanguinalis [9]
  growth inhibition (GI): Active
Digitaria sanguinalis [10]
  growth inhibition (GI): Active
Cyperus iria [11]
  growth inhibition (GI): Active
Chenopodium album [13]
  growth inhibition (GI): Active
Persicaria nodosa [14]
  growth inhibition (GI): Active
Echinochloa crus-galli [16]
  growth inhibition (GI): Active
Cyperus iria [17]
  growth inhibition (GI): Active
Amaranthus retroflexus [18]
  growth inhibition (GI): Active
Chenopodium album [19]
  growth inhibition (GI): Active
